Measured values: patent publication US12492169B2, “Aminopyridine compound and application thereof” (priority 2020, dated 2025)
Converted amounts (≈) assume the structure as drawn. “And” between values parts separate entries of the source, which are not always exact repeats. Equal entries are not always repeated. Where two headings read alike, the source gives them in different places.

Columns and labels:
[1] = Mouse pharmacokinetic evaluation, intraperitoneal injection after oral ABT; format: in vivo; settings: ip, female CD-1 mice, 26 mpk, ABT 50 mg/kg orally 2 hours before, plasma; for AUC: read-out: Concentration Integral AUC; for Cmax: read-out: Peak Concentration Cmax; for Tmax: read-out: Peak Time Tmax
Text: Experimental Purpose: Using female CD-1 mice as test animals, LC/MS/MS was used to measure the plasma drug concentration at different times after intraperitoneal injection of the test compound. To study the pharmacokinetic behavior of the test compound in mice and evaluate its pharmacokinetic characteristics. Drug preparation: An appropriate amount of sample was weighed and then prepared into a clear or suspended solution. Administration scheme: Two healthy female CD-1 mice were taken, purchased from Beijing Vital River Laboratory Animal Technology Co., Ltd., and given a normal diet. The drug was administered through intraperitoneal injection. Operational steps: 2 hours before administration, 1-aminobenzotriazole (ABT) was orally administered (50 mg/kg, 5 mg/mL in normal saline), and after animal administration, about 30 μL of blood was collected at 0.083, 0.25, 0.5, 1, 2, 4, 8, and 24 hours, and placed in commercially available anticoagulant tubes pre-added with EDTA-K2. The tubes were centrifuged for 10 minutes to separate the plasma, and the plasma was stored at −60° C. The content of the target compound in the plasma sample was determined by LC/MS/MS method, and the experimental results are shown in Table 3.

[2] = tested on: Cryptococcus neoformans H99 ATCC 208821; assay: Minimum inhibitory concentration (MIC) test against fungi; format: cell-based; settings: ≥50% growth inhibition by eye, three independent experiments
Experimental: (§1) To test the minimum inhibitory concentration (MIC) and minimum effective concentration (MEC) of the drug against fungi.
Cryptococcus neoformans H99 ATCC 208821;
(§2) Test medium: RPMI1640 (containing 0.165 M MOPS, pH7.0)
(§3) On the day of the experiment, the compound in the bottle was dissolved in 100% DMSO to a stock solution concentration of 6.24 mg/mL. Then, the mixture was 10-fold diluted with DMSO to 0.624 mg/mL for use.
(§4) A 2-fold gradient dilution of the compound solution (0.624 mg/mL) was performed using DMSO on a 96-microwell plate (V-bottom) to obtain 100× working solutions (wells 1 to 11). 624, 312, 156, 78, 39, 20, 10, 5, 2.5, 1.25, 0.625 μg/mL. 100% DMSO was used as a positive control (well 12). This was the compound stock plate.
Cryptococcus neoformans H99 ATCC 208821 frozen at −80° C. was streaked on SDA plates and incubated aerobically in a 35±2° C. incubator for 48 hours.
(§5) On the day of the experiment, for strains Candida parapsilosis ATCC 22019, Candida albicans ATCC MYA-2876; Candida albicans WX-CA009; Candida glabrata ATCC15126; Candida tropicalis ATCC 750 and Cryptococcus neoformans H99 ATCC 208821, the plates were taken out and the clones on the plates were picked, suspended in normal saline, and then the turbidity of the fungal suspension was adjusted to OD600=0.2 using a turbidimeter. The fungal suspension contained about 3.0×10^6 CFU/mL. Then the turbidity-adjusted fungal suspension was diluted with a test medium to a concentration of about 3.0×10^3 CFU/mL. This was the inoculum.
(§6) 2 μL of 100× working solution from the compound stock plate (prepared in 3.1) was transferred to a round-bottomed 96-well plate (containing 98 μL of test medium), and then 100 μL of fungus inoculum (prepared in 3.2) was added to each well to obtain a MIC test plate. Therefore, the final test concentrations of the compounds were 6.24, 3.12, 1.56, 0.78, 0.39, 0.20, 0.10, 0.05, 0.025, 0.0125, 0.006 μg/mL. 1% DMSO was used as a growth control.
For Cryptococcus neoformans H99 ATCC 208821, all test plates were incubated aerobically in a 35±2° C. incubator for 72 hours.
(§7) After incubation, according to the criteria in Table 1 below, the test plate was observed by eye or microscope to determine the MIC (g/mL) and MEC (g/mL) of the test compound against yeast and mold.

[3] = tested on: Candida parapsilosis ATCC 22019; assay: as above; format: cell-based; settings: ≥50% growth inhibition by eye, three independent experiments (1st, 2nd, 3rd time)
Experimental: as §1
(§8) Experimental strains: Candida parapsilosis ATCC 22019; Candida albicans ATCC MYA-2876; Candida albicans WX-CA009; Candida glabrata ATCC15126; Candida tropicalis ATCC 750;
as §2, §3, §4
(§9) Candida parapsilosis ATCC 22019 and Candida albicans ATCC MYA-2876; Candida albicans WX-CA009; Candida glabrata ATCC15126; Candida tropicalis ATCC 750 frozen at −80° C. were streaked on SDA plates and incubated aerobically in a 35±2° C. incubator for 24 hours.
as §5, §6
(§10) For strains Candida parapsilosis ATCC 22019; Candida albicans ATCC MYA-2876; Candida albicans WX-CA009; Candida glabrata ATCC15126; Candida tropicalis ATCC 750, all test plates were incubated aerobically in a 35±2° C. incubator for 24 hours.
as §7

[4] = tested on: Candida tropicalis ATCC 750; assay: as above; format: cell-based; settings: ≥50% growth inhibition by eye, three independent experiments
Experimental: as §1, §8, §2, §3, §4, §9, §5, §6, §10, §7

[5] = tested on: Candida albicans WX-CA009; assay: as above; format: cell-based; settings: ≥50% growth inhibition by eye, three independent experiments
Experimental: as §1, §8, §2, §3, §4, §9, §5, §6, §10, §7

[6] = tested on: Candida glabrata ATCC15126; assay: as above; format: cell-based; settings: ≥50% growth inhibition by eye, three independent experiments
Experimental: as §1, §8, §2, §3, §4, §9, §5, §6, §10, §7

[7] = tested on: Aspergillus flavus ATCC MYA-1004; assay: Minimum effective concentration (MEC) test against fungi; format: cell-based; settings: change of hyphae morphology by microscope, 48 hours, three independent experiments
Experimental: as §1
(§11) Aspergillus fumigatus ATCC-MYA-4609; Aspergillus flavus ATCC MYA-1004
as §2, §3, §4
(§12) Aspergillus fumigatus ATCC-MYA-4609; Aspergillus flavus ATCC MYA-1004 frozen at −80° C. were streaked on SDA plates and incubated aerobically in a 30±2° C. incubator for 6 days.
(§13) For strains Aspergillus fumigatus ATCC MYA-4609; Aspergillus flavus ATCC MYA-1004, after taking out the plate, 3 mL of 0.9% normal saline containing 0.1% Tween20 was added to the plate and the spores were gently collected. The spores were counted with a hemocytometer and the spore suspension was adjusted to about 5×10^6 spores/mL. Then the spore suspension was diluted to 0.8 to 1×10^5 spores/mL with a test medium.
as §6
(§14) For mold strains Aspergillus fumigatus ATCC-MYA-4609 and Aspergillus flavus ATCC MYA-1004, all test plates were incubated aerobically in a 35±° C. incubator for 48 hours.
as §7

[8] = tested on: Aspergillus fumigatus ATCC-MYA-4609; assay: as above; format: cell-based; settings: change of hyphae morphology by microscope, 48 hours, three independent experiments
Experimental: as §1, §11, §2, §3, §4, §12, §13, §6, §14, §7

[9] = tested on: Candida albicans ATCC MYA-2876; assay: Minimum inhibitory concentration (MIC) test against fungi; format: cell-based; settings: ≥50% growth inhibition by eye, three independent experiments
Experimental: as §1, §8, §2, §3, §4, §9, §5, §6, §10, §7

[10] = tested on: Candida albicans ATCC MYA-2876; assay: Mouse candidemia efficacy model; format: in vivo; settings: female CD-1 mice infected with Candida albicans ATCC MYA-2876; 26 mg/kg intraperitoneally once a day for 7 days after 50 mg/kg ABT orally; n=5
Experimental: Experimental animals: female CD-1 mice, 7 weeks old, 27 to 29 g, n=5 or 8;
microbial pathogen: Candida albicans ATCC MYA-2876;
inoculation level and route: 2.0 to 4.0E+05 CFU/mouse, infected by tail vein injection;
treatment: The treatment started at 1 hour after infection. Firstly, ABT was administered orally, and 2 hours later, the test compound was injected intraperitoneally once a day for 7 days in total, with an administration volume of 10 mL/kg.
Observation indicators: Changes in body weight and mortality within 7 days after infection in each group of mice.

[11] = Cryptococcus neoformans, ATCC208821, 72 h, read-out: MIC
[12] = Lodderomyces parapsilosis, ATCC22019, 24 h, read-out: MIC
[13] = Candida tropicalis, ATCC750, 24 h, read-out: MIC
[14] = Candida albicans, WXCA009, 24 h, read-out: MIC
[15] = Nakaseomyces glabratus, ATCC15126, 24 h, read-out: MIC
[16] = Candida albicans, 24 h, read-out: MIC

| MIC [2, 11] [µg/mL] | MIC [3, 12] [µg/mL] | MIC [5, 14] [µg/mL] | MIC ([5]; 24 hours) [µg/mL] | MIC [6, 15] [µg/mL] | MIC ([6]; 24 hours) [µg/mL] | MIC ([2]; 72 hours) [µg/mL] | MIC ([3]; 24 hours) [µg/mL] | SMILES | AUC [1] [µM·h] | Cmax [1] [µM] | Tmax [1] [h] | MIC [4, 13] [µg/mL] | MEC [7] | MEC [8] | MIC [9, 16] [µg/mL] | MIC ([9]; 24 hours) [µg/mL] | protection from death caused by candidemia [10] | MIC ([4]; 24 hours) [µg/mL] |
| --- | --- | --- | --- | --- | --- | --- | --- | --- | --- | --- | --- | --- | --- | --- | --- | --- | --- | --- |
| 0.39 (≈ 1.24 µM) | 0.025 (≈ 0.0793 µM) | 0.0125 (≈ 0.0396 µM) | 0.025 (≈ 0.0793 µM) | 0.39 (≈ 1.24 µM) | 0.78 (≈ 2.47 µM) | – | – | Nc1ncccc1C#CCc1ccc(COc2ccccn2)cc1 [WX003] | 27 | 13.5 | 0.5 | 0.0125 (≈ 0.0396 µM) | 0.2 µg/mL and 0.39 µg/mL | 0.1 µg/mL and 0.2 µg/mL | – | – | – | – |
| > 6.24 | 0.2 (≈ 0.6 µM) | 0.1 (≈ 0.3 µM) | 0.05 (≈ 0.15 µM) | 1.56 (≈ 4.68 µM) | – | 6.24 (≈ 18.7 µM) | 0.1 (≈ 0.3 µM) | Nc1ccc(C#CCc2ccc(COc3ccccn3)cc2)c(F)n1 [WX005] | – | – | – | – | 3.12 µg/mL | 0.39 µg/mL and 0.2 µg/mL | 0.05 (≈ 0.15 µM) | 0.1 (≈ 0.3 µM) | – | – |

| SMILES | MIC [2, 11] [µg/mL] | MIC [3, 12] [µg/mL] | MIC [5, 14] [µg/mL] | MIC ([5]; 24 hours) [µg/mL] | MIC [6, 15] [µg/mL] | MIC ([6]; 24 hours) [µg/mL] | MIC ([2]; 72 hours) [µg/mL] | MIC ([3]; 24 hours) [µg/mL] | AUC [1] [µM·h] | Cmax [1] [µM] | Tmax [1] [h] | MIC [4, 13] [µg/mL] | MEC [7] | MEC [8] | MIC [9, 16] [µg/mL] | MIC ([9]; 24 hours) [µg/mL] | protection from death caused by candidemia [10] | MIC ([4]; 24 hours) [µg/mL] |
| --- | --- | --- | --- | --- | --- | --- | --- | --- | --- | --- | --- | --- | --- | --- | --- | --- | --- | --- |
| Cc1nc(N)ccc1C#CCc1ccc(COc2ccccn2)cc1 [WX006] | 0.78 (≈ 2.37 µM) | 0.05 (≈ 0.152 µM) | 0.05 (≈ 0.152 µM) | 0.025 (≈ 0.0759 µM) | 0.39 (≈ 1.18 µM) | – | – | – | 221 | 23 | 1.5 | 0.0125 (≈ 0.0379 µM) | 0.39 µg/mL and 0.2 µg/mL | 0.1 µg/mL and 0.05 µg/mL | 0.025 (≈ 0.0759 µM) | 0.0125 (≈ 0.0379 µM) | completely protect | 0.025 (≈ 0.0759 µM) |
